Experimental data taken from US11369565B2, “Amino-pyrimidine skeletal muscle modulators” (Cytokinetics, Inc., priority 2010, dated 2022).

System: rabbit skeletal myofibrils (approximately 90% fast fibers)
Experiment: Activation of fast skeletal myofibrils (PUMA coupled-enzyme ATPase assay at pCa25)
Type: biochemical
Conditions: concentration at which the compound increased the enzymatic activity by 40%; calcium at pCa25; PM12 buffer pH 6.8
Experimental: Preparation of fast skeletal myofibrils. Rabbit skeletal myofibrils were prepared based upon the method of Herrmann et al. (Biochem. 32(28):7255-7263(1993). Myofibrils were prepared from rabbit psoas muscle purchased from Pel-Freez Biologicals (Arkansas) within 2 days of ordering, stored on ice. Minced muscle was homogenized in 10 volumes of ice-cold “standard” buffer (50 mM Tris, pH 7.4, 0.1 M potassium acetate, 5 mM KCl, 2 mM DTT, 0.2 mM PMSF, 10 μM leupeptin, 5 μM pepstatin, and 0.5 mM sodium azide) containing 5 mM EDTA and 0.5% Triton X-100 using an Omni-Macro homogenizer. Myofibrils were recovered by low speed centrifugation (3000 rpm for 10 minutes) and washed 2 times in the Triton X-100 containing buffer to ensure removal of cellular membrane. Following the Triton washes, myofibrils were washed 3 times in “standard” buffer containing 2 mM magnesium acetate. A final wash in assay buffer (12 mM PIPES, pH 6.8, 60 mM KCl, 1 mM DTT) was performed and brought to 10% sucrose for flash freezing in liquid nitrogen and storage at −80° C.
Activation of Fast Skeletal Myofibrils. Fast fiber activators were identified by measuring the enzymatic activity of muscle myofibril preparations using the proprietary PUMA™ (see, e.g., U.S. Pat. Nos. 6,410,254, 6,743,599, 7,202,051, and 7,378,254) assay system. Myofibril preparations consisted of rabbit skeletal muscle (approximately 90% fast fibers) that had been mechanically homogenized and washed with a detergent (triton X-100) to remove cellular membranes. This preparation retained all of the sarcomeric components in a native conformation and the enzymatic activity was still regulated by calcium. Compounds were tested using a myofibril suspension and a level of calcium sufficient to increase enzymatic activity of the myofibrils to 25% of their maximal rate (termed pCa25). Enzymatic activity was tracked via a pyruvate kinase and lactate dehydrogenase-coupled enzyme system. This assay regenerates myosin-produced ADP into ATP by oxidizing NADH, producing an absorbance change at 340 nm. The buffering system was 12 mM Pipes, 2 mM MgCl2, 1 mM DTT at pH 6.8 (PM12 buffer).

`CC(C)(CNc1ncc(C(=O)NC2(C(=O)O)CC2)cn1)c1ccc(F)cc1` [1-[(2-{[2-(4-fluorophenyl)-2-methylpropyl]amino}pyrimidin-5-yl)carbonylamino] cyclopropanecarboxylic acid] was tested, and the “Mean AC1.4” value was “D (D=>20 uM)”.

With `CC(C)(Nc1ncc(-c2nc(C(N)=O)co2)cn1)c1ncccc1Cl` [2-(2-{[1-(3-chloro(2-pyridyl))-isopropyl]amino}pyrimidin-5-yl)-1,3-oxazole-4-carboxamide] the “Mean AC1.4” value was “D (D=>20 uM)”.

In the case of `CC(C)(Nc1ncc(-c2ncc(C(N)=O)o2)cn1)c1ncccc1Cl` [2-(2-{[1-(3-chloro(2-pyridyl))-isopropyl]amino}pyrimidin-5-yl)-1,3-oxazole-5-carboxamide], the “Mean AC1.4” value is reported as “D (D=>20 uM)”.

`CC(C)(Nc1ncc(-c2ncc(C(=O)O)o2)cn1)c1ncccc1Cl` [2-(2-{[1-(3-chloro(2-pyridyl))-isopropyl]amino}pyrimidin-5-yl)-1,3-oxazole-5-carboxylic acid] was tested, and the “Mean AC1.4” value was “D (D=>20 uM)”.

With `CC(C)(Nc1ncc(-c2nc(C(=O)O)cs2)cn1)c1ncccc1Cl` [2-(2-{[1-(3-chloro(2-pyridyl))-isopropyl]amino}pyrimidin-5-yl)-1,3-thiazole-4-carboxylic acid] the “Mean AC1.4” value was “D (D=>20 uM)”.

With `CC(C)(Nc1ncc(-c2ncc(C(N)=O)s2)cn1)c1ncccc1Cl` [2-(2-{[1-(3-chloro(2-pyridyl))-isopropyl]amino}pyrimidin-5-yl)-1,3-thiazole-5-carboxamide] the “Mean AC1.4” value was “B (B=1-10 uM)”.

In the case of `CC(C)(Nc1ncc(-c2cn3cc(C(N)=O)ccc3n2)cn1)c1ncccc1Cl` [2-(2-{[1-(3-chloro(2-pyridyl))-isopropyl]amino}pyrimidin-5-yl)-4-hydroimidazo[1,2-a]pyridine-6-carboxamide], the “Mean AC1.4” value is reported as “C (C=10-20 uM)”.

In the case of `CC(C)(Nc1ncc(-c2cn3cc(C(=O)O)ccc3n2)cn1)c1ncccc1Cl` [2-(2-{[1-(3-chloro(2-pyridyl))-isopropyl]amino}pyrimidin-5-yl)-4-hydroimidazo[1,2-a]pyridine-6-carboxylic acid], the “Mean AC1.4” value is reported as “D (D=>20 uM)”.

In the case of `CC(C)(Nc1ncc(-c2cn3ccc(C(N)=O)cc3n2)cn1)c1ncccc1Cl` [2-(2-{[1-(3-chloro(2-pyridyl))-isopropyl]amino}pyrimidin-5-yl)-4-hydroimidazo[1,2-a]pyridine-7-carboxamide], the “Mean AC1.4” value is reported as “D (D=>20 uM)”.

`CC(C)(Nc1ncc(-c2cn3cccc(C(N)=O)c3n2)cn1)c1ncccc1Cl` [2-(2-{[1-(3-chloro(2-pyridyl))-isopropyl]amino}pyrimidin-5-yl)-4-hydroimidazo[1,2-a]pyridine-8-carboxamide] was tested, and the “Mean AC1.4” value was “B (B=1-10 uM)”.

In the case of `CC(C)(Nc1ncc(-c2cc(C#N)ccn2)cn1)c1ncccc1Cl` [2-(2-{[1-(3-chloro(2-pyridyl))-isopropyl]amino}pyrimidin-5-yl)pyridine-4-carbonitrile], the “Mean AC1.4” value is reported as “C (C=10-20 uM)”.

In the case of `CC(C)(Nc1ncc(-c2cc(C(N)=O)ccn2)cn1)c1ncccc1Cl` [2-(2-{[1-(3-chloro(2-pyridyl))-isopropyl]amino}pyrimidin-5-yl)pyridine-4-carboxamide], the “Mean AC1.4” value is reported as “B (B=1-10 uM)”.

For `CC(C)(Nc1ncc(-c2nc(C(=O)O)co2)cn1)c1ncccc1Cl` [2-(2-{[1-(3-chloro(2-pyridyl))-isopropyl}amino}pyrimidin-5-yl)-1,3-oxazole-4-carboxylic acid], the “Mean AC1.4” value was “D (D=>20 uM)”.

With `CC(C)(Nc1ncc(-c2nc(C(N)=O)cs2)cn1)c1ncccc1F` [2-(2-{[1-(3-fluoro(2-pyridyl))-isopropyl]amino}pyrimidin-5-yl)-1,3-thiazole-4-carboxamide] the “Mean AC1.4” value was “D (D=>20 uM)”.

With `CC(C)(Nc1ncc(-c2ncc(C#N)s2)cn1)c1ncccc1F` [2-(2-{[1-(3-fluoro(2-pyridyl))-isopropyl]amino}pyrimidin-5-yl)-1,3-thiazole-5-carbonitrile] the “Mean AC1.4” value was “D (D=>20 uM)”.

`CC(C)(Nc1ncc(-c2ncc(C(N)=O)s2)cn1)c1ncccc1F` [2-(2-{[1-(3-fluoro(2-pyridyl))-isopropyl]amino}pyrimidin-5-yl)-1,3-thiazole-5-carboxamide] was tested, and the “Mean AC1.4” value was “D (D=>20 uM)”.

For `CC(C)(Nc1ncc(-c2nccc(C(N)=O)n2)cn1)c1ncccc1F` [2-(2-{[1-(3-fluoro(2-pyridyl))-isopropyl]amino}pyrimidin-5-yl)pyrimidine-4-carboxamide], the “Mean AC1.4” value was “D (D=>20 uM)”.

In the case of `COc1ccnc(C(C)(C)Nc2ncc(-c3ncc(C(N)=O)s3)cn2)n1` [2-(2-{[1-(4-methoxypyrimidin-2-yl)-isopropyl]amino}pyrimidin-5-yl)-1,3-thiazole-5-carboxamide], the “Mean AC1.4” value is reported as “D (D=>20 uM)”.

With `CC(C)(CNc1ncc(-c2nccc(C(N)=O)n2)cn1)c1ncccc1F` [2-(2-{[2-(3-fluoro(2-pyridyl))-2-methylpropyl]amino)pyrimidin-5-yl)pyrimidine-4-carboxamide] the “Mean AC1.4” value was “C (C=10-20 uM)”.

In the case of `CC(C)(CNc1ncc2c(n1)CN(C(=O)C(N)=O)CC2)c1ccc(F)cc1` [2-(2-{[2-(4-fluorophenyl)-2-methylpropyl]amino}(5,6,7,8-tetrahydropyridino[3,4-d]pyrimidin-7-yl))-2-oxoacetamide], the “Mean AC1.4” value is reported as “D (D=>20 uM)”.

In the case of `CC(C)(CNc1ncc2c(n1)CCN(C(=O)C(N)=O)C2)c1ccc(F)cc1` [2-(2-{[2-(4-fluorophenyl)-2-methylpropyl]amino}(5,6,7,8-tetrahydropyridino[4,3-d]pyrimidin-6-yl))-2-oxoacetamide], the “Mean AC1.4” value is reported as “D (D=>20 uM)”.

With `CC(C)[C@@H](Nc1ncc(-c2ncc(C(N)=O)s2)cn1)c1ncccc1Cl` [2-(2-{[(1R)-1-(3-chloro(2-pyridyl))-2-methylpropyl]amino}pyrimidin-5-yl)-1,3-thazole-5-carboxamide] the “Mean AC1.4” value was “D (D=>20 uM)”.

With `CC(C)[C@@H](Nc1ncc(-c2ncc(C#N)s2)cn1)c1ncccc1Cl` [2-(2-{[(1R)-1-(3-chloro(2-pyridyl))-2-methylpropyl]amino}pyrimidin-5-yl)-1,3-thiazole-5-carbonitrile] the “Mean AC1.4” value was “D (D=>20 uM)”.

`CC(C)[C@H](Nc1ncc(-c2ncc(C#N)s2)cn1)c1ncccc1Cl` [2-(2-{[(1S)-1-(3-chloro(2-pyridyl))-2-methylpropyl]amino}pyrimidin-5-yl)-1,3-thiazole-5-carbonitrile] was tested, and the “Mean AC1.4” value was “D (D=>20 uM)”.

In the case of `CC(C)[C@H](Nc1ncc(-c2ncc(C(N)=O)s2)cn1)c1ncccc1Cl` [2-(2-{[(1S)-1-(3-chloro(2-pyridyl))-2-methylpropyl]amino}pyrimidin-5-yl)-1,3-thiazole-5-carboxamide], the “Mean AC1.4” value is reported as “D (D=>20 uM)”.

`N#Cc1cnc(-c2cnc(NCC3(c4ccccn4)CCC3)nc2)s1` [2-(2-{[(2-pyridylcyclobutyl)methyl]amino}pyrimidin-5-yl)-1,3-thiazole-5-carbonitrile] was tested, and the “Mean AC1.4” value was “D (D=>20 uM)”.

With `NC(=O)c1cnc(-c2cnc(NCC3(c4ccccn4)CCC3)nc2)s1` [2-(2-{[(2-pyridylcyclobutyl)methyl]amino}pyrimidin-5-yl)-1,3-thlazole-5-carboxamide] the “Mean AC1.4” value was “B (B=1-10 uM)”.

For `NC(=O)c1cnc(NCC2(c3ncccc3F)CCC2)nc1` [2-({[(3-fluoro-2-pyridyl)cyclobutyl]methyl}amino) pyrimidine-5-carboxamide], the “Mean AC1.4” value was “D (D=>20 uM)”.

For `NC(=O)c1cc2cnc(NCC3(c4ncccc4F)CCC3)nc2s1` [2-({[(3-fluoro-2-pyridyl)cyclobutyl]methyl}amino) thiopheno[2,3-d]pyrimidine-6-carboxamide], the “Mean AC1.4” value was “C (C=10-20 uM)”.

With `CC(C)(O)c1cnn(-c2cnc(NC(C)(C)c3ncccc3Cl)nc2)c1` [2-[1-(2-{[1-(3-chloro(2-pyridyl))-isopropyl]amino}pyrimidin-5-yl)pyrazol-4-yl]propan-2-ol] the “Mean AC1.4” value was “D (D=>20 uM)”.

For `CC(C)(Nc1ncc(-c2nc(CC(N)=O)cs2)cn1)c1ncccc1F` [2-[2-(2-{[1-(3-fluoro(2-pyridyl))-isopropyl]amino}pyrimidin-5-yl)-1,3-thiazol-4-yl]acetamide], the “Mean AC1.4” value was “D (D=>20 uM)”.

In the case of `CC(C)(Nc1ncc(-c2ncc(C(N)=O)s2)cn1)c1cccc(OC(F)F)n1` [2-[2-({1-[6-(difluoromethoxy)(2-pyridyl)]-isopropyl}amino)pyrimidin-5-yl]-1,3-thiazole-5-carboxamide], the “Mean AC1.4” value is reported as “A (A=<1 uM)”.

`NC(=O)c1ccc(C(N)=O)c(-c2cnc(NC[C@]3(c4ncccc4F)C[C@H](F)C3)nc2)c1` [2-[2-({[3-fluoro-1-(3-fluoro(2-pyridyl))cyclobutyl)]methyl}amino) pyrimidin-5-yl]benzene-1,4-dicarboxamide] was tested, and the “Mean AC1.4” value was “B (B=1-10 uM)”.

For `N#Cc1ccnc(-c2cnc(NC[C@]3(c4ncccc4F)C[C@H](F)C3)nc2)c1` [2-[2-({[3-fluoro-1-(3-fluoro(2-pyridyl))cyclobutyl]methyl)amino)pyrimidin-5-yl]pyridine-4-carbonitrile], the “Mean AC1.4” value was “B (B=1-10 uM)”.
